The source of these data is publication PMC7689250, “Synthetic Peptide Libraries Designed From a Minimal Alpha-Helical Domain of AS-48-Bacteriocin Homologs Exhibit Potent Antibacterial Activity” (Frontiers in Microbiology, 2020).

Data set [1] deals with S. aureus (USA300). The format is cell-based, Staphylococcus aureus. The conditions noted are these: for MBC: USA300; for MIC: USA300, 16 h. Summed up:
(§1)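 MIC in Mueller-Hinton broth with 1 × 10^6 CFU/mL bacteria, overnight cultures grown first in LB (E. coli, P. aeruginosa, S. aureus) or Todd-Hewitt (S. pyogenes); growth read as OD 600. Library members screened at half the parent peptide MIC; MBC as lowest concentration giving no colonies after plating MIC wells, 37°C overnight.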

Data set [2] relates to E. coli (BL21). The format is cell-based, Escherichia coli. The conditions noted are these: for MBC: BL21; for MIC: BL21, 16 h. Summed up:
as §1

In data set [3] the test system is human keratinocyte cell line (HaCaT). Nature of the data set: HaCaT cytotoxicity, ethidium homodimer assay. The conditions noted are these: 16 h, 37°C, DMEM + 10% FBS, normalised to saponin, triplicate. The format is cell-based. The method, then:
To assess cytotoxicity of optimized peptides in mammalian cells, an immortalized human keratinocyte cell line (HaCaT) was used. Cells were grown to 80% confluency in 24-well culture dishes and washed with PBS (Thermo Fisher). […] After incubation, the cells were washed with sterile PBS, followed by a covered incubation with 4 μM ethidium homodimer (Molecular Probes) for 30 min at room temperature. Fluorescence was measured using the Synergy H1 Microplate Reader set to 528 nm excitation, 617 nm emission, and a cutoff value of 590 nm. Saponin (0.1% wt/vol, Sigma) was added to each well followed by a covered incubation for 20 min at room temperature, followed by another measurement on the Synergy H1 Microplate Reader using the same settings to normalize readings to the number of cells per well and determine the percent cytotoxicity.

The test system of data set [4] is sheep erythrocytes. The format is cell-based. The following applies: red cells of sheep, 1 h. Summed up:
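Washed defibrinated sheep blood, diluted 1:25 in PBS, incubated 1 h at 37 °C with peptide at the MIC-assay concentrations (sample:blood 1:10). Haemoglobin release read as supernatant absorbance at 450 nm; percent haemolysis normalised to PBS and 10% Triton controls.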

In data set [5] the test system is P. aeruginosa (PAO1). The format is cell-based, Pseudomonas aeruginosa. The conditions noted are these: for MBC: PAO1. Summed up:
as §1

Data set [6] deals with S. pyogenes (M1). The format is cell-based, Streptococcus pyogenes. The conditions noted are these: for MBC: M1; for MIC: M1, 16 h. Summed up: as §1
Data set [7] concerns GFP-expressing E. coli strain BL21. Nature of the data set: Live imaging of GFP leakage. The format is cell-based, Escherichia coli. The following applies: 16 μM peptide, 8 h, 37°C, images every 10 min. Here is the method:
To observe bacterial cell death in the presence of peptide in real time, fluorescence microscopy was employed using GFP-expressing E. coli strain BL21. MIC assays were conducted against BL21-GFP to determine the peptide concentration used for microscopy experiments. The peptide was suspended in PBS and added to diluted bacterial cells. GFP-expressing E. coli in the presence of peptide were imaged on the Eclipse Ti-E inverted microscope (Nikon) using GFP and DIC channels for 8 h at 37°C, with images taken every 10 min ([Fields et al., 2020]). Syn-xiamencin-2, a peptide with no detectable antimicrobial activity below 128 μM was also evaluated as a negative peptide candidate control.

Read-outs that look alike come from different tables or passages of the source. Residues, ends and D or L forms follow the SMILES beside them.

As a reminder, the MBC is the lowest tested concentration that kills the bacteria rather than only halting them. A word on the MIC: it is the least concentration at which growth counts as inhibited.

Regarding `CC[C@H](C)[C@H](NC(=O)[C@H](CCCNC(=N)N)NC(=O)CNC(=O)[C@@H](NC(=O)[C@H](CCCCN)NC(=O)[C@H](CCCNC(=N)N)NC(=O)[C@@H](NC(=O)[C@H](Cc1ccc(O)cc1)NC(=O)[C@H](CCCNC(=N)N)NC(=O)[C@H](CCCNC(=N)N)NC(=O)[C@H](CC(C)C)NC(=O)[C@H](CCC(=O)O)NC(=O)[C@H](CCCCN)NC(=O)[C@H](C)NC(=O)[C@@H](NC(=O)[C@H](CCCNC(=N)N)NC(=O)[C@H](CC(N)=O)NC(=O)[C@@H](NC(=O)CNC(=O)[C@H](C)N)[C@@H](C)O)[C@@H](C)CC)[C@@H](C)CC)C(C)C)C(=O)N[C@@H](C)C(=O)N[C@@H](CCCNC(=N)N)C(=O)N[C@@H](CCCCN)C(=O)N[C@@H](CCCCN)C(=O)N[C@@H](Cc1c[nH]c2ccccc12)C(=O)O` [Syn-sordellicin-88] (H-AGTNRIAKELRRYIRKVGRIARKKW-OH; N-terminus and C-terminus assumed), the MBC in data set [1] is 64 µM; in data set [2], 1 µM; in data set [5] it was 16 µM; in data set [6] it was 1 µM. The MIC in data set [1] stood at 64 µM; in data set [2], 1 µM; in data set [5] (PAO1, 16 h), 16 µM; in data set [6], 1 µM. In addition, the “concentration at which peptide is cytotoxic” value in data set [3] was ≥ 64 µM. Moreover, the “Percent Hemolysis” value in data set [4] was 11.7%.
With `CC[C@H](C)[C@H](NC(=O)[C@H](CCCNC(=N)N)NC(=O)[C@H](CCC(N)=O)NC(=O)[C@@H](NC(=O)[C@H](Cc1c[nH]c2ccccc12)NC(=O)[C@H](C)N)[C@@H](C)O)C(=O)N[C@@H](CCCCN)C(=O)N[C@@H](C)C(=O)N[C@@H](Cc1ccc(O)cc1)C(=O)N[C@@H](CC(C)C)C(=O)N[C@@H](CCCNC(=N)N)C(=O)N[C@@H](CCCNC(=N)N)C(=O)N[C@@H](CCC(=O)O)C(=O)N[C@H](C(=O)N[C@@H](CCCNC(=N)N)C(=O)N[C@@H](CCCCN)C(=O)N[C@@H](CCCNC(=N)N)C(=O)NCC(=O)N[C@@H](CCCNC(=N)N)C(=O)N[C@@H](CCCCN)C(=O)N[C@@H](C)C(=O)N[C@H](C(=O)N[C@H](C(=O)N[C@@H](C)C(=O)N[C@@H](Cc1c[nH]c2ccccc12)C(=O)O)[C@@H](C)CC)C(C)C)[C@@H](C)CC` [Syn-sordellicin-19] (H-AWTQRIKAYLRREIRKRGRKAVIAW-OH; N-terminus and C-terminus assumed), the MBC in data set [1] is >128 µM; in data set [2], 2 µM; in data set [5], 16 µM; in data set [6] it was 2 µM. Also, the MIC in data set [1] is >128 µM; in data set [2], 2 µM; in data set [5] (PAO1, 16 h), 8 µM; in data set [6], 2 µM. For the same compound, the “concentration at which peptide is cytotoxic” value in data set [3] is ≥ 64 µM.
Regarding `CC[C@H](C)[C@H](NC(=O)[C@H](CCCNC(=N)N)NC(=O)[C@H](CCC(N)=O)NC(=O)[C@H](Cc1c[nH]c2ccccc12)NC(=O)CNC(=O)[C@H](C)N)C(=O)N[C@@H](CCCCN)C(=O)N[C@@H](C)C(=O)N[C@@H](Cc1ccc(O)cc1)C(=O)N[C@@H](CC(C)C)C(=O)N[C@@H](CCCNC(=N)N)C(=O)N[C@@H](CCCNC(=N)N)C(=O)N[C@@H](CCC(=O)O)C(=O)N[C@H](C(=O)N[C@@H](CCCNC(=N)N)C(=O)N[C@@H](CCCCN)C(=O)N[C@@H](CCCNC(=N)N)C(=O)NCC(=O)N[C@@H](CCCNC(=N)N)C(=O)N[C@@H](CCCCN)C(=O)N[C@@H](C)C(=O)N[C@H](C(=O)N[C@H](C(=O)N[C@@H](C)C(=O)N[C@@H](Cc1c[nH]c2ccccc12)C(=O)O)[C@@H](C)CC)C(C)C)[C@@H](C)CC` [Syn-sordellicin-43] (H-AGWQRIKAYLRREIRKRGRKAVIAW-OH; N-terminus and C-terminus assumed), the MBC in data set [1] is 32 µM; in data set [2], 1 µM; in data set [5], 4 µM; in data set [6], 4 µM. The MIC in data set [1] came out at 32 µM; in data set [2] it was 1 µM; in data set [5] (P. aeruginosa PAO1, broth microdilution, Mueller-Hinton broth, 1 × 10^6 CFU/mL, 16 h, OD600, triplicate), 2 µM; in data set [6], 2 µM. For the same compound, in data set [4], the “Percent Hemolysis” value was determined as 11.2%. In addition, the “GFP leakage / change in fluorescence” value in data set [7] is on record as “significant decrease in fluorescence”.
